The term IC50 denotes the midpoint of a concentration-inhibition curve.

Molecules are shown by their SMILES.

Sequence of full-length recombinant human FYN A (P06241 whole entry): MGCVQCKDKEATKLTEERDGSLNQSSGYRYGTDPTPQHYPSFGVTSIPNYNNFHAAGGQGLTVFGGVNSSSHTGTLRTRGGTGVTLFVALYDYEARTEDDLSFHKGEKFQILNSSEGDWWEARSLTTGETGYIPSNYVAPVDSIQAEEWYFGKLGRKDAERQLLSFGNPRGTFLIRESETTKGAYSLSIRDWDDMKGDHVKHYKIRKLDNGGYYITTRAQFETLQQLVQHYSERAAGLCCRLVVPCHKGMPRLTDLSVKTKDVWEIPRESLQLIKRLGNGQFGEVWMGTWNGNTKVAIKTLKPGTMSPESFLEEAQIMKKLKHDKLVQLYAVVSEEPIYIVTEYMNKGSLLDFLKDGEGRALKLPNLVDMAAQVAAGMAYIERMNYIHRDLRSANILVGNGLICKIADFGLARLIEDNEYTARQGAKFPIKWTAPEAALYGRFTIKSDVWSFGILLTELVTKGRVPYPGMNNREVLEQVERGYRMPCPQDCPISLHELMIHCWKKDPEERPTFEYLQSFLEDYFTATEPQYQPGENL

The assay addresses full-length recombinant human FYN A (Homo sapiens (Human), UniProt P06241). The assay can be described thus: ADP-Glo Kinase Assay of FYN kinase inhibition. Format: biochemical. To be noted: primary screen, initial compounds. The procedure, abridged: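 ADP-Glo read-out of peptide phosphorylation after 90 min RT with 12.5 pmol ATP and 100 pg 12-mer substrate. Enzyme was N-GST full-length human FYN A from insect cells, 3 pg, pre-incubated 30 min with compound, 10 points from 10 μM top, 3-fold steps; IC50 from curve.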
For `COc1cncc(-c2cnn3ccc(Nc4ccc(N5CCOCC5)cc4)nc23)c1` [294_0088_0196, 3-(5-methoxy-3-pyridyl)-N-(4-morpholino-phenyl)pyrazolo [1,5-a]pyrimidin-5-amine], the IC50 turned out to be 2250 nM.
In the case of `Cc1ccc(Nc2ccn3ncc(-c4cccc(O)c4)c3n2)cc1NS(C)(=O)=O` [294_0123_0284, N-[5-[[3-(3-hydroxyphenyl)pyrazolo[1,5-a]pyrimidin-5-yl]amino]-2-methyl-phenyl]methane-sulfonamide], the IC50 was 3170 nM.
`Nc1cccc(-c2cnn3ccc(NCc4cccnc4)nc23)c1` [294_4003_0005, 3-(3-amino-phenyl)-N-(3-pyridylmethyl) pyrazolo[1,5-a]pyrimidin-5-amine]: the IC50 came out at 2510 nM.
With `COc1ccc(-c2cnn3ccc(NCc4cccnc4)nc23)cc1OC` [294_4003_0079, 3-(3,4-dimethoxy-phenyl)-N-(3-pyridylmethyl) pyrazolo[1,5-a]pyrimidin-5-amine], the IC50 is 1640 nM.
Then `COc1ccccc1-c1cnn2ccc(NCc3cccnc3)nc12` [294_4003_0083, 3-(2-methoxyphenyl)-N-(3-pyridylmethyl) pyrazolo[1,5-a]pyrimidin-5-amine], with 1220 nM; and `COc1cc(-c2cnn3ccc(NCc4cccnc4)nc23)cc(OC)c1OC` [294_4003_0087, N-(3-pyridylmethyl)-3-(3,4,5-trimethoxy-phenyl) pyrazolo[1,5-a]pyrimidin-5-amine], with 2350 nM; and `COc1ccc(-c2cnn3ccc(Nc4ccc(C(C)C)cc4)nc23)cc1` [294_6937_0280, N-(4-isopropylphenyl)-3-(4-methoxyphenyl) pyrazolo[1,5-a]pyrimidin-5-amine], with 4180 nM.
Take `COc1cc(-c2cnc(N)c(-c3cccc(N)c3)c2)cc(OC)c1OC` [382_0005_0087, 3-(3-aminophenyl)-5-(3,4,5-trimethoxy-phenyl)pyridin-2-amine]: the IC50 stood at 2970 nM.
The same measure for `Cc1cc(-c2cnc(N)c(-c3ccncc3)c2)cc(C)c1O` [382_0069_0315, 4-[6-amino-5-(4-pyridyl)-3-pyridyl]-2,6-dimethyl-phenol]: 1700 nM.
Consider `COc1cc(-c2cc(-c3ccc(OCCCN(C)C)nc3)cnc2N)cc(OC)c1OC` [382_0087_0002, 5-[6-[3-(dimethylamino)propoxy]-3-pyridyl]-3-(3,4,5-trimethoxy-phenyl)pyridin-2-amine], for which the IC50 was 530 nM.
As to `COc1cc(-c2cc(-c3ccccc3)cnc2N)cc(OC)c1OC` [382_0087_0061, 5-phenyl-3-(3,4,5-trimethoxy-phenyl)pyridin-2-amine], the IC50 is 893 nM.
Turning to `COc1cc(-c2cc(-c3ccccc3Oc3ccccc3)cnc2N)cc(OC)c1OC` [382_0087_0063, 5-(2-phenoxyphenyl)-3-(3,4,5-trimethoxy-phenyl)pyridin-2-amine], the IC50 stood at 9010 nM.
The same measure for `COc1cc(-c2cc(-c3cc4ccccc4s3)cnc2N)cc(OC)c1OC` [382_0087_0076, 5-(benzothiophen-2-yl)-3-(3,4,5-trimethoxyphenyl) pyridin-2-amine]: 2690 nM; for `COc1cc(-c2cc(-c3cccc(N(C)C)c3)cnc2N)cc(OC)c1OC` [382_0087_0135, 5-[3-(dimethyl-amino)phenyl]-3-(3,4,5-trimethoxyphenyl) pyridin-2-amine]: 595 nM.
On to `COc1cc(-c2cc(-c3cccc(C(=O)NCCO)c3)cnc2N)cc(OC)c1OC` [382_0087_0192, 3-[6-amino-5-(3,4,5-trimethoxy-phenyl)-3-pyridyl]-N-(2-hydroxyethyl) benzamide], for which the IC50 came to 485 nM.
Turning to `COc1cc(-c2cc(-c3ccc(N4CCN(C)CC4)cc3)cnc2N)cc(OC)c1OC` [382_0087_0218, 5-[4-(4-methylpiperazin-1-yl)phenyl]-3-(3,4,5-trimethoxyphenyl)pyridin-2-amine], the IC50 is 322 nM.
For `COc1ccc(-c2cnc(N)c(-c3cc(OC)c(OC)c(OC)c3)c2)cc1` [382_0087_0280, 5-(4-methoxyphenyl)-3-(3,4,5-trimethoxy-phenyl)pyridin-2-amine], the IC50 came out at 2980 nM.
Consider `COc1cc(-c2cc(-c3cccc(O)c3)cnc2N)cc(OC)c1OC` [382_0087_0284, 3-[6-amino-5-(3,4,5-trimethoxy-phenyl)-3-pyridyl]phenol], for which the IC50 was determined as 723 nM.
The same measure for `COc1ccc(-c2cnc(N)c(-c3cc(OC)c(OC)c(OC)c3)c2)cn1` [382_0087_0311, 5-(6-methoxy-3-pyridyl)-3-(3,4,5-trimethoxyphenyl) pyridin-2-amine]: 1060 nM; for `COc1cc(-c2cc(-c3cccc(F)c3)cnc2N)cc(OC)c1OC` [382_0087_0313, 5-(3-fluorophenyl)-3-(3,4,5-trimethoxy-phenyl)pyridin-2-amine]: 1520 nM; for `COc1cc(-c2cc(-c3cc(C)c(O)c(C)c3)cnc2N)cc(OC)c1OC` [382_0087_0315, 4-[6-amino-5-(3,4,5-trimethoxyphenyl)-3-pyridyl]-2,6-dimethyl-phenol]: 712 nM.
For `COc1cc(-c2cc(-c3ccc(N)cc3)cnc2N)cc(OC)c1OC` [382_0087_0333, 5-(4-aminophenyl)-3-(3,4,5-trimethoxy-phenyl)pyridin-2-amine], the IC50 turned out to be 971 nM.
Consider `COc1cc(-c2cc(-c3ccc(F)cc3)cnc2N)cc(OC)c1OC` [382_0087_0339, 5-(4-fluoro-phenyl)-3-(3,4,5-trimethoxy-phenyl)pyridin-2-amine], for which the IC50 was found to be 2860 nM.
The same measure for `COc1cc(-c2cc(-c3ccoc3)cnc2N)cc(OC)c1OC` [382_0087_0343, 5-(3-furyl)-3-(3,4,5-trimethoxy-phenyl)pyridin-2-amine]: 12100 nM; for `COc1cc(-c2cc(-c3ccc(C(N)=O)cc3)cnc2N)cc(OC)c1OC` [382_0087_0346, 4-[6-amino-5-(3,4,5-trimethoxy-phenyl)-3-pyridyl]benzamide]: 400 nM; for `COc1cccc(-c2cnc(N)c(-c3cc(OC)c(OC)c(OC)c3)c2)c1` [382_0087_4140, 5-(3-methoxyphenyl)-3-(3,4,5-trimethoxyphenyl) pyridin-2-amine]: 9500 nM.
In the case of `COc1cc(-c2cc(-c3cccc(NS(C)(=O)=O)c3)cnc2N)cc(OC)c1OC` [382_0087_6488, N-[3-[6-amino-5-(3,4,5-trimethoxy-phenyl)-3-pyridyl]phenyl] methane-sulfonamide], the IC50 was 525 nM.
Then `COc1cc(-c2cc(-c3ccc(O)cc3)cnc2N)cc(OC)c1OC` [382_0087_7249, 4-[6-amino-5-(3,4,5-trimethoxy-phenyl)-3-pyridyl]phenol], with 1730 nM; and `COc1cc(-c2cc(-c3ccc(C(=O)NC4CC4)cc3)cnc2N)cc(OC)c1OC` [382_0087_7489, 4-[6-amino-5-(3,4,5-trimethoxy-phenyl)-3-pyridyl]-N-cyclopropyl-benzamide], with 507 nM.
Then `CN(C)CCCOc1ccc(-c2cnc(N)c(-c3cccc(N(C)C)c3)c2)cn1` [382_0135_0002, 3-[3-(dimethylamino)phenyl]-5-[6-[3-(dimethyl-amino)propoxy]-3-pyridyl]pyridin-2-amine], with 4660 nM; and `CN(C)c1cccc(-c2cc(-c3cccnc3)cnc2N)c1` [382_0135_0071, 3-[3-(dimethyl-amino)phenyl]-5-(3-pyridyl)pyridin-2-amine], with 7110 nM.
Then `COc1ccc(-c2cnc(N)c(-c3cccc(N(C)C)c3)c2)cc1OC` [382_0135_0079, 5-(3,4-dimethoxy-phenyl)-3-[3-(dimethylamino)phenyl]pyridin-2-amine], with 5050 nM.
Take `COc1cc(-c2cnc(N)c(-c3cccc(N(C)C)c3)c2)cc(OC)c1OC` [382_0135_0087, 3-[3-(dimethyl-amino)phenyl]-5-(3,4,5-trimethoxy-phenyl)pyridin-2-amine]: the IC50 is 3130 nM.
As to `CN(C)c1cccc(-c2cc(-c3cccc(C(=O)NCCO)c3)cnc2N)c1` [382_0135_0192, 3-[6-amino-5-[3-(dimethylamino)phenyl]-3-pyridyl]-N-(2-hydroxyethyl) benzamide], the IC50 amounted to 3570 nM.
For the compound `CN1CCN(C(=O)c2cccc(-c3cnc(N)c(-c4cccc(N(C)C)c4)c3)c2)CC1` [382_0135_0200, [3-[6-amino-5-[3-(dimethylamino)phenyl]-3-pyridyl]phenyl]-(4-methyl-piperazin-1-yl)methanone], the IC50 is 4440 nM.
As to `CN(C)c1cccc(-c2cc(-c3cccc(CO)c3)cnc2N)c1` [382_0135_0291, [3-[6-amino-5-[3-(dimethylamino)phenyl]-3-pyridyl]phenyl] methanol], the IC50 is 2700 nM.
Take `COc1cc(-c2cnc(N)c(-c3cccc(N(C)C)c3)c2)ccc1O` [382_0135_0314, 4-[6-amino-5-[3-(dimethylamino)phenyl]-3-pyridyl]-2-methoxy-phenol]: the IC50 was determined as 2110 nM.
Then `Cc1cc(-c2cnc(N)c(-c3cccc(N(C)C)c3)c2)cc(C)c1O` [382_0135_0315, 4-[6-amino-5-[3-(dimethylamino)phenyl]-3-pyridyl]-2,6-dimethyl-phenol], with 4200 nM.
The same measure for `CN(C)c1cccc(-c2cc(-c3cccc(C(N)=O)c3)cnc2N)c1` [382_0135_0347, 3-[6-amino-5-[3-(dimethylamino)phenyl]-3-pyridyl] benzamide]: 3520 nM; for `Nc1ncc(-c2ccc(N3CCOCC3)cc2)cc1-c1cccc(O)c1` [382_0284_0001, 3-[2-amino-5-(4-morpholino-phenyl)-3-pyridyl]phenol]: 4640 nM; for `COc1ccc(-c2cnc(N)c(-c3cccc(O)c3)c2)cc1OC` [382_0284_0079, 3-[2-amino-5-(3,4-dimethoxy-phenyl)-3-pyridyl]phenol]: 2000 nM.
With `COc1cc(-c2cnc(N)c(-c3cccc(O)c3)c2)cc(OC)c1OC` [382_0284_0087, 3-[2-amino-5-(3,4,5-trimethoxy-phenyl)-3-pyridyl]phenol], the IC50 was found to be 1020 nM.
The same measure for `COc1ccc(-c2cnc(N)c(-c3ccc(CO)cc3)c2)cc1OC` [382_0285_0079, [4-[2-amino-5-(3,4-dimethoxy-phenyl)-3-pyridyl]phenyl] methanol]: 5130 nM.

The values are drawn from patent publication US10688093B2, “Methods, compositions, and uses of novel Fyn kinase inhibitors” (priority 2015, dated 2020).
